The first assay deals with 233499-124-R-J3-PDC spheroids with HUVEC/MSC, viability. In words: Anticancer human tumor 233499-124-R-J3-PDC patient-derived colon adenocarcinoma cell line growth inhibition [PI3K]. The settings on record: second compound 0.00316 µM; first compound 3.16 µM; stronger effect = lower value. Put shortly: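 Tumor cells grown as multi-cell spheroids with HUVEC endothelial cells and MSC fibroblast-like stroma were treated with targeted agents combined with inavolisib, alpelisib, duvelisib or copanlisib. Doses fell in half-log steps from near clinical Cmax, else from 10 microM. Viability was measured.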
The term viability, T/C denotes the ratio of treated to control. With `C=CC(=O)N1CCN(c2nc(=O)n(-c3c(C)ccnc3C(C)C)c3nc(-c4c(O)cccc4F)c(F)cc23)C(C)C1` (configuration not stated) + CC(Nc1ccc2c(c1)OCCn1cc(N3C(=O)OCC3C(F)F)nc1-2)C(N)=O, the viability, T/C is 100%.
Take `CC(Cn1ccc(-c2ccc(C#N)c(Cl)c2)n1)NC(=O)c1cc(C(C)O)[nH]n1` (configuration not stated) + CC(Nc1ccc2c(c1)OCCn1cc(N3C(=O)OCC3C(F)F)nc1-2)C(N)=O: the viability, T/C is 90.8%.

The same assay, now with this note: second compound 0.00316 µM; first compound 10 µM; stronger effect = lower value.
Consider `C#Cc1c(F)ccc2cc(O)cc(-c3ncc4c(N5CC6CCC(C5)N6)nc(OCC56CCCN5CC(F)C6)nc4c3F)c12` (configuration not stated) + CC(Nc1ccc2c(c1)OCCn1cc(N3C(=O)OCC3C(F)F)nc1-2)C(N)=O, for which the viability, T/C was 85.5%.
In the case of `C=CC(=O)N1CCN(c2nc(=O)n(-c3c(C)ccnc3C(C)C)c3nc(-c4c(O)cccc4F)c(F)cc23)C(C)C1` (configuration not stated) + CC(Nc1ccc2c(c1)OCCn1cc(N3C(=O)OCC3C(F)F)nc1-2)C(N)=O, the viability, T/C was 100%.
Take `CC(Cn1ccc(-c2ccc(C#N)c(Cl)c2)n1)NC(=O)c1cc(C(C)O)[nH]n1` (configuration not stated) + CC(Nc1ccc2c(c1)OCCn1cc(N3C(=O)OCC3C(F)F)nc1-2)C(N)=O: the viability, T/C was 97.7%.

The assay is the same for the next values; noted with them: second compound 0.01 µM; first compound 0.0316 µM; stronger effect = lower value.
On to `C#Cc1c(F)ccc2cc(O)cc(-c3ncc4c(N5CC6CCC(C5)N6)nc(OCC56CCCN5CC(F)C6)nc4c3F)c12` (configuration not stated) + CC(Nc1ccc2c(c1)OCCn1cc(N3C(=O)OCC3C(F)F)nc1-2)C(N)=O, for which the viability, T/C was 99.1%.
Consider `C=CC(=O)N1CCN(c2nc(=O)n(-c3c(C)ccnc3C(C)C)c3nc(-c4c(O)cccc4F)c(F)cc23)C(C)C1` (configuration not stated) + CC(Nc1ccc2c(c1)OCCn1cc(N3C(=O)OCC3C(F)F)nc1-2)C(N)=O, for which the viability, T/C was 85.9%.
On to `CC(Cn1ccc(-c2ccc(C#N)c(Cl)c2)n1)NC(=O)c1cc(C(C)O)[nH]n1` (configuration not stated) + CC(Nc1ccc2c(c1)OCCn1cc(N3C(=O)OCC3C(F)F)nc1-2)C(N)=O, for which the viability, T/C was 99.5%.

The assay is the same for the next values; noted with them: second compound 0.01 µM; first compound 0.1 µM; stronger effect = lower value.
Consider `C#Cc1c(F)ccc2cc(O)cc(-c3ncc4c(N5CC6CCC(C5)N6)nc(OCC56CCCN5CC(F)C6)nc4c3F)c12` (configuration not stated) + CC(Nc1ccc2c(c1)OCCn1cc(N3C(=O)OCC3C(F)F)nc1-2)C(N)=O, for which the viability, T/C was 105%.
For `C=CC(=O)N1CCN(c2nc(=O)n(-c3c(C)ccnc3C(C)C)c3nc(-c4c(O)cccc4F)c(F)cc23)C(C)C1` (configuration not stated) + CC(Nc1ccc2c(c1)OCCn1cc(N3C(=O)OCC3C(F)F)nc1-2)C(N)=O, the viability, T/C was 88.8%.
As to `CC(Cn1ccc(-c2ccc(C#N)c(Cl)c2)n1)NC(=O)c1cc(C(C)O)[nH]n1` (configuration not stated) + CC(Nc1ccc2c(c1)OCCn1cc(N3C(=O)OCC3C(F)F)nc1-2)C(N)=O, the viability, T/C is 77.7%.

The same assay, now with this note: second compound 0.01 µM; first compound 0.316 µM; stronger effect = lower value.
Consider `C#Cc1c(F)ccc2cc(O)cc(-c3ncc4c(N5CC6CCC(C5)N6)nc(OCC56CCCN5CC(F)C6)nc4c3F)c12` (configuration not stated) + CC(Nc1ccc2c(c1)OCCn1cc(N3C(=O)OCC3C(F)F)nc1-2)C(N)=O, for which the viability, T/C is 91.4%.
Consider `C=CC(=O)N1CCN(c2nc(=O)n(-c3c(C)ccnc3C(C)C)c3nc(-c4c(O)cccc4F)c(F)cc23)C(C)C1` (configuration not stated) + CC(Nc1ccc2c(c1)OCCn1cc(N3C(=O)OCC3C(F)F)nc1-2)C(N)=O, for which the viability, T/C was 77.5%.
In the case of `CC(Cn1ccc(-c2ccc(C#N)c(Cl)c2)n1)NC(=O)c1cc(C(C)O)[nH]n1` (configuration not stated) + CC(Nc1ccc2c(c1)OCCn1cc(N3C(=O)OCC3C(F)F)nc1-2)C(N)=O, the viability, T/C was 96.2%.

Staying with this assay, now noted: second compound 0.01 µM; first compound 1 µM; stronger effect = lower value.
Turning to `C#Cc1c(F)ccc2cc(O)cc(-c3ncc4c(N5CC6CCC(C5)N6)nc(OCC56CCCN5CC(F)C6)nc4c3F)c12` (configuration not stated) + CC(Nc1ccc2c(c1)OCCn1cc(N3C(=O)OCC3C(F)F)nc1-2)C(N)=O, the viability, T/C is 98.7%.
As to `C=CC(=O)N1CCN(c2nc(=O)n(-c3c(C)ccnc3C(C)C)c3nc(-c4c(O)cccc4F)c(F)cc23)C(C)C1` (configuration not stated) + CC(Nc1ccc2c(c1)OCCn1cc(N3C(=O)OCC3C(F)F)nc1-2)C(N)=O, the viability, T/C was 95.6%.
For the molecule `CC(Cn1ccc(-c2ccc(C#N)c(Cl)c2)n1)NC(=O)c1cc(C(C)O)[nH]n1` (configuration not stated) + CC(Nc1ccc2c(c1)OCCn1cc(N3C(=O)OCC3C(F)F)nc1-2)C(N)=O, the viability, T/C is 83.4%.

Staying with this assay, now noted: second compound 0.01 µM; first compound 3.16 µM; stronger effect = lower value.
`C#Cc1c(F)ccc2cc(O)cc(-c3ncc4c(N5CC6CCC(C5)N6)nc(OCC56CCCN5CC(F)C6)nc4c3F)c12` (configuration not stated) + CC(Nc1ccc2c(c1)OCCn1cc(N3C(=O)OCC3C(F)F)nc1-2)C(N)=O: the viability, T/C is 46.5%.
Same read-out and setting: the result for `C=CC(=O)N1CCN(c2nc(=O)n(-c3c(C)ccnc3C(C)C)c3nc(-c4c(O)cccc4F)c(F)cc23)C(C)C1` (configuration not stated) + CC(Nc1ccc2c(c1)OCCn1cc(N3C(=O)OCC3C(F)F)nc1-2)C(N)=O reads 97.5%; that for `CC(Cn1ccc(-c2ccc(C#N)c(Cl)c2)n1)NC(=O)c1cc(C(C)O)[nH]n1` (configuration not stated) + CC(Nc1ccc2c(c1)OCCn1cc(N3C(=O)OCC3C(F)F)nc1-2)C(N)=O, 82.5%.

Still in this assay, the particulars now being: second compound 0.01 µM; first compound 10 µM; stronger effect = lower value.
Take `C#Cc1c(F)ccc2cc(O)cc(-c3ncc4c(N5CC6CCC(C5)N6)nc(OCC56CCCN5CC(F)C6)nc4c3F)c12` (configuration not stated) + CC(Nc1ccc2c(c1)OCCn1cc(N3C(=O)OCC3C(F)F)nc1-2)C(N)=O: the viability, T/C was 46%.
Still for that read-out and setting: with `C=CC(=O)N1CCN(c2nc(=O)n(-c3c(C)ccnc3C(C)C)c3nc(-c4c(O)cccc4F)c(F)cc23)C(C)C1` (configuration not stated) + CC(Nc1ccc2c(c1)OCCn1cc(N3C(=O)OCC3C(F)F)nc1-2)C(N)=O the figure was 86.2%; with `CC(Cn1ccc(-c2ccc(C#N)c(Cl)c2)n1)NC(=O)c1cc(C(C)O)[nH]n1` (configuration not stated) + CC(Nc1ccc2c(c1)OCCn1cc(N3C(=O)OCC3C(F)F)nc1-2)C(N)=O, 76.8%.

The assay is the same for the next values; noted with them: second compound 0.0316 µM; first compound 0.0316 µM; stronger effect = lower value.
`C#Cc1c(F)ccc2cc(O)cc(-c3ncc4c(N5CC6CCC(C5)N6)nc(OCC56CCCN5CC(F)C6)nc4c3F)c12` (configuration not stated) + CC(Nc1ccc2c(c1)OCCn1cc(N3C(=O)OCC3C(F)F)nc1-2)C(N)=O: the viability, T/C was 93.1%.
As to `C=CC(=O)N1CCN(c2nc(=O)n(-c3c(C)ccnc3C(C)C)c3nc(-c4c(O)cccc4F)c(F)cc23)C(C)C1` (configuration not stated) + CC(Nc1ccc2c(c1)OCCn1cc(N3C(=O)OCC3C(F)F)nc1-2)C(N)=O, the viability, T/C was 85.8%.
Turning to `CC(Cn1ccc(-c2ccc(C#N)c(Cl)c2)n1)NC(=O)c1cc(C(C)O)[nH]n1` (configuration not stated) + CC(Nc1ccc2c(c1)OCCn1cc(N3C(=O)OCC3C(F)F)nc1-2)C(N)=O, the viability, T/C is 92.1%.

Still in this assay, the particulars now being: second compound 0.0316 µM; first compound 0.1 µM; stronger effect = lower value.
Turning to `C#Cc1c(F)ccc2cc(O)cc(-c3ncc4c(N5CC6CCC(C5)N6)nc(OCC56CCCN5CC(F)C6)nc4c3F)c12` (configuration not stated) + CC(Nc1ccc2c(c1)OCCn1cc(N3C(=O)OCC3C(F)F)nc1-2)C(N)=O, the viability, T/C was 102%.
With `C=CC(=O)N1CCN(c2nc(=O)n(-c3c(C)ccnc3C(C)C)c3nc(-c4c(O)cccc4F)c(F)cc23)C(C)C1` (configuration not stated) + CC(Nc1ccc2c(c1)OCCn1cc(N3C(=O)OCC3C(F)F)nc1-2)C(N)=O, the viability, T/C was 106%.
For the molecule `CC(Cn1ccc(-c2ccc(C#N)c(Cl)c2)n1)NC(=O)c1cc(C(C)O)[nH]n1` (configuration not stated) + CC(Nc1ccc2c(c1)OCCn1cc(N3C(=O)OCC3C(F)F)nc1-2)C(N)=O, the viability, T/C was 82.4%.

Still in this assay, the particulars now being: second compound 0.0316 µM; first compound 0.316 µM; stronger effect = lower value.
For the molecule `C#Cc1c(F)ccc2cc(O)cc(-c3ncc4c(N5CC6CCC(C5)N6)nc(OCC56CCCN5CC(F)C6)nc4c3F)c12` (configuration not stated) + CC(Nc1ccc2c(c1)OCCn1cc(N3C(=O)OCC3C(F)F)nc1-2)C(N)=O, the viability, T/C is 85.4%.
`C=CC(=O)N1CCN(c2nc(=O)n(-c3c(C)ccnc3C(C)C)c3nc(-c4c(O)cccc4F)c(F)cc23)C(C)C1` (configuration not stated) + CC(Nc1ccc2c(c1)OCCn1cc(N3C(=O)OCC3C(F)F)nc1-2)C(N)=O: the viability, T/C is 91.4%.
For `CC(Cn1ccc(-c2ccc(C#N)c(Cl)c2)n1)NC(=O)c1cc(C(C)O)[nH]n1` (configuration not stated) + CC(Nc1ccc2c(c1)OCCn1cc(N3C(=O)OCC3C(F)F)nc1-2)C(N)=O, the viability, T/C is 67.9%.

Values taken from PubChem BioAssay AID1963984 (Molecular Pharmacology Branch, DTP, NCI, 2024).
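Further: spheroids exposed to agents for seven days before readout; percent viability relative to DMSO vehicle control taken as 100%.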
